Data published in US20210187013A1, “Methods of Treating and Preventing Cancer by Disrupting the Binding of Copper in the Map Kinase Pathway” (DUKE UNIVERSITY, priority 2012, published 2021).

Columns and labels:
[1] = system: Erk1/2 phosphorylation in Drosophila S2 cells; assay: Insulin-stimulated Erk1/2 phosphorylation in S2 cells after preincubation with chelator or silver (immunoblot); assay type: cell-based; conditions: then human insulin 25 μg/mL
Text: The copper transporter Ctr1 was identified as one of approximately 300 genes that when knocked down in S2 insect cells reduced phosphorylation of Erk (see, e.g., Friedman, A. and Perrimon, N. (2006) Nature 444:230-234). To explore whether both Ctr11 and the associated Cu^+ transport function are important for Ras signaling to Erk1/2, Cu^+-specific chelation was used to impose copper deficiency on cultured fly S2 cells, S2 cells used for the no-treatment and insulin-only treatment conditions were left in basal medium (Schneider's medium with 10% fetal bovine serum) during the preincubation. S2 cells used for the other treatment conditions were preincubated for 1 hour with chelator or silver as follows: 10 μM tetrathiomolybdate (TTM) and 250 μM bathocupronine disulfonate (BCS) for copper chelation experiments, 10 μM ferrozine, and 250 μM bathophenanthroline disulfonate (BPS) for iron chelation, and 10 μM silver nitrate. Cells were stimulated with human insulin at a concentration of 25 μg/mL of medium. […] (FIG. 3A). […] (FIG. 3B). […] (FIG. 3C).

[2] = biological target: T1, recombinant GST-tagged human Mek1 (Homo sapiens, UniProt Q02750); assay: Mek1 in vitro kinase assay (phosphorylation of kinase-dead Erk2); assay type: biochemical
T1 construct: made in house; host or cells: E. coli BL21(DE3)
T1 sequence (Q02750 whole entry): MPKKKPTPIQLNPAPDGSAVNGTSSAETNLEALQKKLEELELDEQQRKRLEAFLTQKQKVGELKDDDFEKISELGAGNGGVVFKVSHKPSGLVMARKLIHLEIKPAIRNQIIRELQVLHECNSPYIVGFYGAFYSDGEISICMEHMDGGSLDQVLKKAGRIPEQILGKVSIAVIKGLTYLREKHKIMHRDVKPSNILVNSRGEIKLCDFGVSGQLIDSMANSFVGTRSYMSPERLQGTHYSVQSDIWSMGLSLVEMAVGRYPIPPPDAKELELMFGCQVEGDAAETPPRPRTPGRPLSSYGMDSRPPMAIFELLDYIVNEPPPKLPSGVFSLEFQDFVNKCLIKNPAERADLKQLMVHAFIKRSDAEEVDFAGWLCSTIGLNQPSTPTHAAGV
Method: Mek1 requires copper for kinase activity in vitro (FIG. 8 and Turski, M. L. et al. (2012), supra). To determine the role copper plays in the stimulation of Mek1-dependent phosphorylation of Erk1/2, a series of in vitro experiments were carried out. For these experiments, purified human Mek1 protein was incubated with a kinase-dead isoform of hErk2 so that assessment of Erk2 phosphorylation mediated by Mek1 could be made in the absence of Erk2 autophosphorylation. Seger, R. et. al. (1991) Proc. Natl. Acad. Sci. U.S.A. 88:6142-6146.
Human Erk2 and human Mek1 were obtained from Addgene and cloned into pGEX4T3 and pGEX6P1 from GE Life Sciences, respectively. Recombinant GST-human Erk2 (hErk2) and GST-human Mek1 (hMek1) were purified from BL21(DE3) bacteria as previously described. […] The concentration was determined using the Bio-Rad DC protein assay (Bio-Rad, Hercules, United States).
(§1) Modified version of Mek1 and Erk2 in vitro kinase assay were performed as described previously. […] Reactions were quenched with 5× Laemmli buffer, and a third of the reaction mixture was analyzed by SDS-PAGE via subsequent Western blotting with phosphospecific antibodies. […] Reactions were quenched with 5× Laemmli buffer, and a third of the reaction mixture was analyzed by SDS-PAGE via Western blotting with phosphospecific antibodies.

recombinant GST-hErk2 = biological target: T2, recombinant GST-hErk2 (Homo sapiens, UniProt P28482); assay: Erk2 in vitro kinase assay (phosphorylation of MBP); assay type: biochemical; conditions: increasing amounts of CuSO4; wild-type Erk2
T2 construct: made in house; host or cells: E. coli BL21(DE3)
T2 sequence (P28482 whole entry): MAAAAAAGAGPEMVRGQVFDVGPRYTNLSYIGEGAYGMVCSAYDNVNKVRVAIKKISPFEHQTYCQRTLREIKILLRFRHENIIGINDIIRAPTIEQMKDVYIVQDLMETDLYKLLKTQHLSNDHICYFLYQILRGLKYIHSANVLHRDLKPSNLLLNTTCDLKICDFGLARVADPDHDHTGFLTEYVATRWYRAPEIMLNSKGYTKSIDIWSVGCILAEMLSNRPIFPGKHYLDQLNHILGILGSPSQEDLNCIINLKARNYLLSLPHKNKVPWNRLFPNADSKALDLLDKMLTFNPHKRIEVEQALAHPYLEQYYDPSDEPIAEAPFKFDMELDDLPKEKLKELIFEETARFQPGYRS
Method: Human Erk2 and human Mek1 were obtained from Addgene and cloned into pGEX4T3 and pGEX6P1 from GE Life Sciences, respectively. Recombinant GST-human Erk2 (hErk2) and GST-human Mek1 (hMek1) were purified from BL21(DE3) bacteria as previously described. (see Heise, C. J. (2006) Methods 40:209-212; Levin-Salomon, V. et al. (2008) J. Biol. Chem. 283:34500-34510). Specifically, 500 mL of LB was inoculated with BL21(DE3) bacteria transformed with pGEX4T3-hErk2 or pGEX6P1-hMek1 and allowed to grow to an optical density of 0.6 at 600 nm (OD600). GST-hErk2 was induced by IPTG (0.4 mM) at 37° C. for 4 hours, while GST-hMek1 was induced by IPTG (1 mM) for 14 hour at 25° C. before collection by ultracentrifugation. […] and GST-hMek1 pellets were resuspended in 50 mL of 1×PBS-1% Triton X-100 plus a protease inhibitor tablet and sonicated for bacterial lysis. […] The concentration was determined using the Bio-Rad DC protein assay (Bio-Rad, Hercules, United States).
as §1

recombinant Mek1 = biological target: T3, recombinant Mek1 (Rattus norvegicus, UniProt Q01986); assay: Equilibrium dialysis copper binding stoichiometry of recombinant Mek1
T3 construct: GST (N, cleaved yes); made in house; host or cells: E. coli BL21-CodonPlus (DE3)-RIPL
T3 sequence (Q01986 whole entry): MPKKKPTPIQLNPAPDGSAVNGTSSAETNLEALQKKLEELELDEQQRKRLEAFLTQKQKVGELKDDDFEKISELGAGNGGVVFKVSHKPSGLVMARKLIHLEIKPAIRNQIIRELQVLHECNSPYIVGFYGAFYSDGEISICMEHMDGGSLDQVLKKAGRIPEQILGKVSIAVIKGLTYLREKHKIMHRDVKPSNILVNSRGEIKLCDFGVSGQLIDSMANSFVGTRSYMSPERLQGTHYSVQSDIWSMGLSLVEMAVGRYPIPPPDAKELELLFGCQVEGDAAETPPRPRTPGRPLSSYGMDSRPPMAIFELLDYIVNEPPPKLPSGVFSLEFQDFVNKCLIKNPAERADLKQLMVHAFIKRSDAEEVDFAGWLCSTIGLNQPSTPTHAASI
Method: To investigate the nature of copper binding to Mek1, purified recombinant Mek1 was used for in vitro copper binding stoichiometry and binding affinity experiments. In vitro copper-binding experiments were carried out using the rat Mek1 coding sequence, which was PCR amplified using the pCMV-HAMek1 construct and cloned into the pGex6P-1 vector (GE Healthcare Life Sciences, Waukesha, United States). The resulting plasmid, pGex69-1Mek1, was transformed into BL21-CodonPlus (DE3)-RIPL cells from Stratagene. Recombinant, glutathione S-transferase (GST)-tagged Mek1 was purified by affinity chromatography using GSH agarose beads, followed by on-column Pre Scission protease cleavage of the GST tag. Further purification was achieved using MonoQ anion-exchange chromatography that served to remove the majority of the contaminating proteins, including cleaved GST tags that were not retained on the GSH column. […] Protein concentrations were determined by quantitative amino acid analysis with a Beckman 6300 analyzer (Beckman Coulter, Brea, United States) after hydrolysis in 5.7 N HCl at 110° C. in vacuo. Equilibrium dialysis experiments were conducted as described in Horng, Y. C. et al. (2006) J. Biol. Chem. 280:34113-34122. Recombinant Mek1 (2.5 to 10 μM in 20 mM Tris [pH 7.2]) was dialyzed, using a dialysis tube with 10-kDa molecular mass cutoff, against CuCl2 concentrations ranging from 0.25 to 15 μM in 20 mM Tris (pH 7.2)-100 mM NaCl overnight at 4° C. with slow stirring. Copper levels associated with Mek1 and the dialysate were quantified by inductively coupled plasma mass spectroscopy after digestion with 50% HNO3 at 65° C. In specific experiments, Cu^2+ was introduced as a Cu^2+-histidine complex (His complex) to preclude Cu^2+ hydrolysis and precipitation.
However, the inclusion of 0.1 mM EDTA reduced the Cu content to ˜1.5 molar equivalents. Dialysis of Mek1 against 2 μM Cu^2+-4 μM His complex, followed by a subsequent dialysis step in 0.1 mM EDTA, reduced the copper content to approximately 2 molar equivalents. Inclusion of […] when only Cu^2+ was present. […] In a separate series of equilibrium dialysis experiments in which the Cu^2+ content was varied from […] to 0.15 μM, the maximal copper content associated with Mek1 plateaued near ˜2.5 molar equivalent (FIG. 7B). […] Under these same conditions, Cu^2+ binding is observed with albumin, a known Cu^2+-binding protein, but not lysozyme or thyroglobulin.

[3] = Cu2+ affinity of ligands used in the PAR competition study; assay type: physicochemical; conditions: 1:1 complex
Method: To obtain a precise binding affinity, a series of ligand competition studies using PAR were conducted. PAR is a chromogenic chelator forming colored complexes with metal ions. Cu^2+ binding affinity for Mek1 was estimated using competition experiments similar to those described in Zimmermann, M. et. al. (2009) Biochemistry 48:11640-11654, with the divalent metal ligand PAR [4-(2-pyridylazo)resorcinol]. The quantitative release of the 1:1 Cu^2+-/PAR complex on titration of apo-Mek1 was monitored spectrophotometrically at 500 nm (DU 600 spectrophotometer, Beckman Coulter, Brea, United States) in 20 mM Tris (pH 7.2)-100 mM NaCl.
Bidentate PAR forms a 1:1 complex with Cu^2+.
Control titrations under the same pH and ionic strength buffer conditions were performed with EDTA and bovine serum albumin (BSA) to validate the Cu^2+-PAR titration study. Both EDTA and BSA are spectrally silent, with known dissociation constants. EDTA also served to calibrate Cu^2+-PAR affinity relative to the reaction condition used for the experiments.

[4] = system: BRaf^V600E-transformed MEFs; assay: Tumor growth in mice injected with BRaf^V600E-transformed MEFs; assay type: in vivo; conditions: 2 mg/day oral TM
Text: FIGS. 12A-12C are graphs showing that copper is required for BRaf^V600E-driven tumorigenesis.
Copper is provided primarily through diet. […] Similar copper-reducing strategies may even hold promise as a way to preemptively reduce the incidence of melanoma in high-risk populations. In this regards, there are well-established approaches to regulate the level of copper in humans. Specifically, Wilson's Disease is characterized by a mutation in the copper-transporting gene ATP7B that results in elevated levels of copper in the body (see, e.g., Das, S. K. and Ray, K. (2006) Nat. Clin. Pract. Neurol. 2:482-493). This disease is treated by first lowering copper levels with copper chelators D-penicillamine, trientine or investigative drugs such as ammonium tetrathiomolybdate (TM). Copper levels are then maintained by a copper-restricted diet (e.g., avoidance of copper-rich foods such as shellfish, nuts, chocolate, liver and cooking in copperware) and either zinc acetate, to block copper absorption, or low dose copper chelators (see, e.g., Das, S. K. and Ray, K. (2006), supra). To evaluate if reducing dietary copper could negatively impact melanoma, mice injected with BRaf^V600E-transformed MEFs were either untreated as a control or treated with oral TM to chelate dietary copper.

[5] = system: Erk1/2 phosphorylation in mouse embryonic fibroblasts (MEFs); assay: Insulin-stimulated Erk1/2 phosphorylation in Ctr1+/+ and Ctr1−/− MEFs; assay type: cell-based
Method: Ctr1^+/+ and Ctr1^−/− mouse embryonic fibroblasts (MEFs) and insulin or fibroblast growth factor (FGF) stimulation experiments. To determine whether copper plays a role in the activation of Erk1/2, which is phosphorylated by Mek1, Ctr1^+/+ and Ctr1^−/− mouse embryonic fibroblasts (MEFs) were evaluated for insulin-stimulated ERK1/2 phosphorylation. Isolation and culture of Ctr1^+/+ and Ctr1^−/− cells were done as described in Lee, J. et al. (2002) J. Biol. Chem. 30:322-329. Insulin or fibroblast growth factor (FGF) stimulation experiments were done with plates measuring […], with one plate per time point. Cells were allowed to reach ˜95% confluence and then serum starved for 16 to 48 hours. Recombinant human insulin (Invitrogen, Carlsbad, United States) was added at a final concentration of 200 nM, and recombinant human basic FGF (Invitrogen, Carlsbad, United States) was added at a final concentration of 10 ng/ml, with the exception of the time zero plate. […]

[6] = S2 cells preincubated 1 hour with 10 μM agent
[7] = S2 cells preincubated 1 hour with 250 μM agent

In the case of `O=[N+]([O-])[O-].[Ag+]` [Ag, silver nitrate], the “insulin-stimulated Erk1/2 phosphorylation” value [1, 6] is reported as “clearly diminished the levels of insulin-stimulated Erk1/2 phosphorylation”.
In the case of `Cc1cc(-c2ccc(S(=O)(=O)O)cc2)c2ccc3c(-c4ccc(S(=O)(=O)O)cc4)cc(C)nc3c2n1` [BCS, bathocupronine disulfonate], the “insulin-stimulated Erk1/2 phosphorylation” value [1, 7] is reported as “reduced the levels of insulin-stimulated Erk1/2 phosphorylation”.
In the case of `O=S(=O)([O-])[O-].[Cu+2]` [CuSO4], the “Mek1 kinase activity, times greater” value ([2]; 2.5 μM CuSO4, 22° C., 30 minutes) is reported as about 20 times.
For `[Cl][Cu][Cl]` [Cu^2+, CuCl2], the “Erk2 phosphorylation of MBP” value (recombinant GST-hErk2) was “no effect”, the “bound copper content of Mek1” value (recombinant Mek1; dialysis against 2 μM Cu2+-4 μM His complex, then dialysis in 0.1 mM EDTA) was “approximately 2 molar equivalents” and the “bound copper content of Mek1” value (recombinant Mek1; dialysis against 2 μM Cu2+, as-isolated ratio ~0.5) was about 2.5 molar equivalents. For the same molecule, the “bound copper content of Mek1” value (recombinant Mek1; dialysis with inclusion of 0.1 mM EDTA) was about 1.5 molar equivalents, the “bound copper content of Mek1” value (recombinant Mek1; only Cu2+ present (comparison with Zn(II) and Fe(II) inclusion)) was 2.6 and the “maximal copper content associated with Mek1 (plateau)” value (recombinant Mek1; separate dialysis series, Cu2+ content varied from 0.11 to 0.15 μM) was about 2.5 molar equivalent.
With `Oc1ccc(N=Nc2ccccn2)c(O)c1` [PAR, 4-(2-pyridylazo)resorcinol] the “affinity of Cu2+-PAR complex (formation constant β)” value [3] was 3.2×10^17.
For `[NH4+].[NH4+].[SH-].[SH-].[S]=[Mo]=[S]` [TM, ammonium tetrathiomolybdate], the “tumor size versus control tumors at termination of the experiment” value [4] was “nearly five times smaller than the control tumors”.
For `[SH-].[SH-].[S]=[Mo]=[S]` [TTM, tetrathiomolybdate, reference compound], the “insulin-stimulated Erk1/2 phosphorylation” value [1, 6] was “reduced the levels of insulin-stimulated Erk1/2 phosphorylation” and the “Mek1 kinase activity in the presence of 2.5 μM CuSO4” value ([2]; 50 μM TTM in the presence of CuSO4) was “blunted”.
For `[Cu]` [copper], the “insulin-stimulated Erk1/2 phosphorylation” value ([5]; Ctr1+/+ cells, copper added) was “No additional stimulation was observed” and the “insulin-stimulated Erk1/2 phosphorylation” value ([5]; Ctr1−/− MEFs preincubated with 25 μM copper for 1 hour prior to insulin stimulation) was “increased insulin-stimulated Erk1/2 phosphorylation, though not to the same levels as Ctr1^+/+ MEFs”.
For `O=S(=O)([O-])c1ccc(-c2nnc(-c3ccccn3)nc2-c2ccc(S(=O)(=O)[O-])cc2)cc1.[Na+].[Na+]` [ferrozine], the “insulin-stimulated Erk1/2 phosphorylation” value [1, 6] was “did not reduce insulin-stimulated Erk1/2 phosphorylation”.
In the case of bathophenanthroline disulfonate [BPS], the “insulin-stimulated Erk1/2 phosphorylation” value [1, 7] is reported as “did not reduce insulin-stimulated Erk1/2 phosphorylation”.
